Where two headings read alike, the source gives them in different places. One block for each compound: values may come before it.
Key:
[1] = Solution stability, Example A (pH 7.4 phosphate buffer/MeOH, LC/MS); type: physicochemical; conditions: for degredation: aqueous pH 7.4 buffer containing methanol
Protocol: A 1.05 mg/mL stock solution (5 mL) of Ex. 45 in MeOH was prepared. From the stock solution was taken out 1.25 mL and diluted to 25 mL with the addition of 23.75 mL of 10 mM phosphate buffer (pH 7.4)/MeOH (70/30 v/v). This new solution was split into three. One solution was incubated at 4° C., another incubated at 25° C. and the third incubated at 40° C. Each solution was analyzed by LC/MS after day 1, day 2 and day 6 and compared to a standard calibration curve for Ex. 45.
In the following study, the solution stability of the compound of Example 45 was measured and compared to that of Compound Z. The compound of Example 45 is an iminothiadiazine dioxide compound of the invention. Compound Z is the corresponding iminopyrimidinone compound. The structures of the compound of Example 45 and of Compound Z are shown below. Studies were performed in aqueous pH 7.4 buffer containing methanol at 4° C., 25° C. and 40° C.

[2] = tested on: endogenous rat Aβ1-40 (Aβ40) in cortex; assay: Cortical Aβ40 in rats after oral dosing (Luminex-based immunodetection); type: in vivo; conditions: read-out: Change in rat cortex Aβ40
Protocol: The following procedures were used.
Male CD rats (˜100 g; Crl:CD(SD); Charles River Laboratories, Kingston, N.Y.) were group housed and acclimated to the vivarium for 5-7 days prior to use in a study. Compounds were formulated in 20% hydroxypropyl-β-cyclodextrin and administered orally with a dosing volume of 5 ml/kg for rats. Three h after drug administration, rats were euthanized with excess CO2. The brain was removed from the skull and immediately frozen on dry ice. All tissues were stored at −70° C. until Aβ quantification.
Ab585 was labeled with biotin (b-Ab585) by first dialyzing the antibody sample extensively versus PBS (pH 7.8) to remove impurities, followed by dilution to between 1 and 2 mg/mL protein concentration. EZ-Link Sulfo-NHS-LC-Biotin (Pierce) was dissolved in PBS (pH 7.8) at a concentration of 1 mg/mL immediately prior to use. Ab585 was labeled with EZ-Link Sulfo-NHS-LC-biotin using a 10:1 biotin:antibody ratio by incubation at room temperature for 1 hour. The labeling reaction was quenched by addition of 1.0 M glycine to a final concentration of 0.1 M followed by 10 minute incubation at room temperature. Glycine was removed by extensive dialysis versus PBS.
The antibody was coupled to the beads using the Bio-Plex Amine Coupling Kit (Bio-Rad) as per the manufacturer's recommendations.
Rat cortex Aβ40 levels were measured from guanidine HCl extracts of individual rat cortices using a Luminex-based immunodetection assay. Rat brains were thawed briefly at 37° C. and both mid- and hindbrain regions were removed. The remaining material, consisting primarily of cortex (˜800 mg) was carried through the guanidine extraction procedure. Cortices were added to a 2 ml BioPur tube (Eppendorf) along with a 6.35 mm chrome-coated steel ball and 1.0 ml of sucrose homogenization buffer (20 mM HEPES [pH 7.5], 50 mM KCl, 50 mM sucrose, 2 mM EDTA, 2 mM EGTA supplemented with complete protease inhibitors [Roche, EDTA-free]). Samples were then homogenized by agitation for 1.5 min at 30 cycles/sec in a MM300 tissue mixer (Retsch®). The resulting cortical homogenate was extracted with guanidine-HCl by mixing 67 μl of homogenate with 133 μl of 5 M Guanidine HCl, 50 mM Tris HCl (pH 8.0). To maximize the efficiency of Aβ extraction, samples were vortexed and then sonicated for 2 minutes in an ice bath using an Ultrasonics XL cup horn sonicator at a power setting of 8 (Heat Systems, Inc.). Insoluble material was removed by ultracentrifugation using a using a TLA-55 rotor in a TL-100 benchtop centrifuge (Beckman) at 100,000×g for 30 minutes. The resulting supernatant was then either diluted 1:10 in 5 M guanidine HCl, 0.05 M Tris HCl (pH 8.0) for protein analysis (BCA protein assay, Pierce Biochemicals) or assayed neat for Aβ40 levels. The Luminex rodent Aβ40 assay was performed as follows. First, 96 well filter binding plates (Millipore, catalogue # MSBVN12) were wetted with 100 μl of 1×LAβ40 buffer (0.05 M HEPES [pH 7.5], 0.2% BSA, 0.2% Tween-20, 0.15 M NaCl) by vacuum filtration on a Millipore 96-well manifold. The plate bottom was sealed and 100 μl of 1×LAβ40 buffer was added to each well followed by addition of 50 μl each of G2-10:COOH beads (1000 beads/well) and 50 μl b-Ab585 at 0.5 μg/ml in 1×LAβ40 buffer. Guanidine HCl was added to synthetic rodent Aβ40 standards in order to control for the effect of guanidine in brain extracts on the assay performance. Ten microliters of cortical extract, rodent Aβ40 standards or cortical extract from amyloid precursor protein knockout mice (to define background immunoreactivity) was added to each well. Plates were covered and incubated overnight at 4° C. Following the incubation, wells were cleared by vacuum and washed twice with 100 μl of 1×LAβ40 buffer on a Millipore manifold.

[3] = target: purified human autoBACE-2 (Homo sapiens (Human), UniProt Q9Y5Z0); assay: BACE-2 assay (BACE-HTRF, time-resolved endpoint proteolysis); type: biochemical; conditions: Ki calculated from IC50 using the Cheng-Prusoff equation
Protocol: Inhibitor IC50s at purified human autoBACE-2 were determined in a time-resolved endpoint proteolysis assay that measures hydrolysis of the QSY7-[sequence]-Eu-amide FRET peptide substrate (BACE-HTRF assay). […] DMSO was present at 5% final concentration in the assay. Following laser excitation of sample wells at 320 nm, the fluorescence signal at 620 nm was collected for 400 ms following a 50 μs delay on a RUBYstar HTRF plate reader (BMG Labtechnologies). Raw RFU data was normalized to maximum (1.0 nM BACE/DMSO) and minimum (no enzyme/DMSO) RFU values. […] The Ki values were calculated from the IC50 using the Cheng-Prusoff equation.

P-gp = assay: Caco-2 bi-directional permeability; type: in vitro ADME; conditions: human, Caco-2
Protocol: (§1) The bi-directional permeability with efflux potential of selected compounds of the invention vs. otherwise structurally identical iminopyrimidinones (collectively referred to as test compounds, shown in the table below) were assessed using Caco-2 cell line. The Caco-2 cells were maintained in DMEM (Dulbecco's Modified Eagle Medium) containing 10% fetal bovine serum, 1% non-essential amino acids, 2 mM L-glutamine, and 1% penicillin-streptomycin in an incubator at ˜37° C. in an atmosphere of 5% CO2 and about 90% relative humidity. The cell culture medium was changed three times weekly. Caco-2 cell monolayers were grown on polyethylene terephthalate filters using 24-well BD Falcon™ Cell Culture Insert Plates (0.33 cm^2 insert area, 1 μm pore size; BD BioSciences, Bedford, Mass.). The culture medium of the plate was changed every other day until used for the transport experiment (21-28 days post seeding).
(§2) The transport buffer (TM) was Hank's balanced salt solution (HBSS) with 10 mM HEPES and 25 mM glucose (pH 7.4) for dosing and TM with 4% bovine serum albumin for receiver (pH 7.4). The bi-directional permeability of the test compounds were tested at concentrations of 1, 10 and 100 μM was measured in triplicate with 2-hr incubation. The cell monolayer integrity was monitored with pre- and post-experimental trans-epithelial electrical resistance and post-experimental Lucifer Yellow (LY) permeability with 1 hr incubation.
(§3) The apparent permeability, recovery and efflux ratio values were calculated using the following equations:
(§4) where, • dCR/dt: The slope of the accumulative concentration in the receiver compartment versus time incubation (μM·s^−1) • C0hr: Donor concentration (μM) immediately after dosing • CD, final: Donor concentration (μM) at the end of incubation • S: Membrane surface area (cm^2) • VD: Volume of donor compartment (mL) • VR: Volume of receiver compartment (mL) • Papp-BLtoAP: Permeability from basolateral (BL) to apical (AP) transport

[4] = target: soluble human BACE1 catalytic domain (Homo sapiens (Human), UniProt P56817); assay: BACE1 HTRF FRET assay; type: biochemical; conditions: Ki calculated from IC50 using the Cheng-Prusoff equation; read-out: BACE-1 Ki
[5] = Solution stability, Example B (50 mM pH 7.4 phosphate buffer, 25° C., LC/MS); type: physicochemical
Protocol: Stock solutions of the tested compounds were prepared by dissolving about 3 mg of each compound in 3 mL of acetonitrile. Standards for test compounds were prepared by diluting 1 mL of the stock solution with an additional 4 mL of acetonitrile. These standards were stored at 4° C. Samples were prepared by diluting 1 mL of the stock solution with 4 mL of 50 mM pH 7.4 phosphate buffer. These samples were stored at 25° C. in the absence of light. Standards and samples were analyzed by LC/MS initially and at day 1, day 4, and day 6.
Mobile phase A: 10 mM pH 5 ammonium acetate buffer:methanol (90:10)
Mobile phase B: 10 mM pH 5 ammonium acetate buffer:methanol (10:90)
Column: Zorbax SB-Phenyl 4.6×50 mm, 1.8 μm
Column temperature: 40° C.
Area % is the integration of peak from HPLC as reported by Waters Empower II software.
In the following study, the solution stability of the compound of Example 47 was measured and compared to that of Compound Y. The compound of Example 47 is an iminothiadiazine dioxide compound of the invention. Compound Y is the corresponding iminopyrimidinone compound. The structures of the compound of Example 47 and of Compound Y are shown below. Studies were performed in pH 7.4 buffer at 25° C.

[6] = Caco-2 bi-directional permeability; type: in vitro ADME; conditions: human, Caco-2; permeability apical to basolateral; read-out: Caco-2 AP→BL
Protocol: as §1, §2, §3, §4

Caco-2 cell line = assay: Caco-2 bi-directional permeability; type: in vitro ADME; conditions: permeability apical to basolateral
Protocol: as §1, §2, §3, §4

[7] = pH 7.4, 40° C., last column without time heading
[8] = rats, 3 h after a 10 mg/kg oral dose, vs vehicle cohort
[9] = Standard (in acetonitrile, stored at 4° C.)

purified human autoBACE-2, sequence (Q9Y5Z0 63-473 limits assumed): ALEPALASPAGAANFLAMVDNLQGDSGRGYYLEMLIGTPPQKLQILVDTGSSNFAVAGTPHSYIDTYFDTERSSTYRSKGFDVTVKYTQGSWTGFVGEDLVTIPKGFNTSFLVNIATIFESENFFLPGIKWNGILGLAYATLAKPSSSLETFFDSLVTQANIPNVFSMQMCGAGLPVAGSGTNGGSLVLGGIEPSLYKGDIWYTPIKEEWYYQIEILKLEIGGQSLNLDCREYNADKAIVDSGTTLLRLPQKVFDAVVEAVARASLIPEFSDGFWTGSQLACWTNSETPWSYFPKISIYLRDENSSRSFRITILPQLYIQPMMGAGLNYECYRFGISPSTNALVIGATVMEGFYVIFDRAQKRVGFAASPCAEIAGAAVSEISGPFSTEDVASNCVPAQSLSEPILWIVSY
soluble human BACE1 catalytic domain, sequence (P56817 75-416): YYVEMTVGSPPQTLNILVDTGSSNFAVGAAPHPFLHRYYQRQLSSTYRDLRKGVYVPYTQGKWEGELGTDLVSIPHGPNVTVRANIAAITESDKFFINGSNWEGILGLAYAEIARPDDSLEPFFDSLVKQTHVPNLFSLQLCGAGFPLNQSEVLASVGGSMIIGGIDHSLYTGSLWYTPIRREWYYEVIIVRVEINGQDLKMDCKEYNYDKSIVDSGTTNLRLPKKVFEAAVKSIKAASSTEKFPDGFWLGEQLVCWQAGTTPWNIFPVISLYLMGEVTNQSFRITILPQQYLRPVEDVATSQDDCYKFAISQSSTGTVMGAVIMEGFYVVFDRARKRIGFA

SMILES: CN1C(=N)N[C@](C)(c2cc(-c3cccc(C#N)c3)cs2)CC1=O [Compound Z]
degredation ([1]; 4° C., after 1 day): 18.3%
degredation ([1]; 25° C., time not stated): 53.87%
degredation ([1]; 40° C., after 1 day): 79.93%
Assay (Area %) ([1]; pH 7.4, 4° C., 1 day): 69.84 Area %
Assay (Area %), degradation symbol ([1]; pH 7.4, 4° C., 2 days): — ((—) stands for > 20% degradation)
Assay (Area %), degradation symbol ([1]; pH 7.4, 4° C., 6 days): — ((—) stands for > 20% degradation)
Assay (Area %) ([1]; pH 7.4, 4° C., Initial): 88.15 Area %
Assay (Area %), degradation symbol ([1]; pH 7.4, 4° C., last column without time heading): — ((—) stands for > 20% degradation)
Assay (Area %) ([1]; pH 7.4, 25° C., 1 day): 34.28 Area %
Assay (Area %), degradation symbol ([1]; pH 7.4, 25° C., 2 days): — ((—) stands for > 20% degradation)
Assay (Area %), degradation symbol ([1]; pH 7.4, 25° C., 6 days): — ((—) stands for > 20% degradation)
Assay (Area %) ([1]; pH 7.4, 25° C., Initial): 88.15 Area %
Assay (Area %), degradation symbol ([1]; pH 7.4, 25° C., last column without time heading): — ((—) stands for > 20% degradation)
Assay (Area %) ([1]; pH 7.4, 40° C., 1 day): 8.22 Area %
Assay (Area %), degradation symbol ([1]; pH 7.4, 40° C., 2 days): — ((—) stands for > 20% degradation)
Assay (Area %), degradation symbol ([1]; pH 7.4, 40° C., 6 days): — ((—) stands for > 20% degradation)
Assay (Area %) ([1]; pH 7.4, 40° C., Initial): 88.15 Area %
Assay (Area %), degradation symbol [1, 7]: — ((—) stands for > 20% degradation)

SMILES: CN1C(=N)N[C@](C)(c2cc(NC(=O)c3ccc(F)cn3)ccc2F)CS1(=O)=O [Example 25]
change in vivo at 10 mg/kg [2, 8]: -49%

SMILES: CN1C(=N)N[C@](C)(c2cc(NC(=O)c3ccc(C(F)(F)F)cn3)ccc2F)CS1(=O)=O [Example 26]
Ki [3]: 2.46 nM
change in vivo at 10 mg/kg [2, 8]: -33%
efflux ratio at 2 h (P-gp): 2.9
Ki [4]: 1.26 nM

SMILES: CN1C(=N)N[C@](C)(c2cc(NC(=O)c3ccc(Cl)cn3)ccc2F)CS1(=O)=O [Example 34]
Ki [3]: 0.22 nM
change in vivo at 10 mg/kg [2, 8]: -51%
efflux ratio at 2 h (P-gp): 3.1
Ki [4]: 0.949 nM

SMILES: Cc1ccc(C(=O)Nc2ccc(F)c([C@]3(C)CS(=O)(=O)N(C)C(=N)N3)c2)nc1 [Example 35]
Ki [3]: 0.45 nM
efflux ratio at 2 h (P-gp): 2.1
Ki [4]: 3 nM

SMILES: Cc1cnc(C(=O)Nc2ccc(F)c([C@]3(C)CS(=O)(=O)N(C)C(=N)N3)c2)cn1 [Example 36]
Ki [3]: 4.85 nM
change in vivo at 10 mg/kg [2, 8]: -25%
efflux ratio at 2 h (P-gp): 3.3
Ki [4]: 10 nM

SMILES: COc1cnc(C(=O)Nc2ccc(F)c([C@]3(C)CS(=O)(=O)N(C)C(=N)N3)c2)cn1 [Example 40ai]
Ki [3]: 1.99 nM
change in vivo at 10 mg/kg [2, 8]: -51%
efflux ratio at 2 h (P-gp): 1.8
Ki [4]: 1.64 nM

SMILES: COc1cnc(C(=O)Nc2cc(F)c(F)c([C@]3(C)CS(=O)(=O)N(C)C(=N)N3)c2)cn1 [Example 40di]
Ki [3]: 2.15 nM
change in vivo at 10 mg/kg [2, 8]: -38%
efflux ratio at 2 h (P-gp): 2
Ki [4]: 1.05 nM

SMILES: CN1C(=N)N[C@](C)(c2cc(-c3cccc(C#N)c3)cs2)CS1(=O)=O [Example 45]
efflux ratio at 2 h (P-gp): 1.4
Ki [4]: 25.6 nM
degredation ([1]; 4° C., after 6 days): 0.93%
degredation ([1]; 25° C., after 6 days): 7.4%
degredation ([1]; 40° C., after 6 days): 30.71%
Assay (Area %) ([1]; pH 7.4, 4° C., 1 day): 99.69 Area %
Assay (Area %) ([1]; pH 7.4, 4° C., 2 days): 99.04 Area %
Assay (Area %) ([1]; pH 7.4, 4° C., 6 days): 98.89 Area %
Assay (Area %) ([1]; pH 7.4, 4° C., Initial): 99.82 Area %
Assay (Area %) ([1]; pH 7.4, 25° C., 1 day): 98.45 Area %
Assay (Area %) ([1]; pH 7.4, 25° C., 2 days): 96.07 Area %
Assay (Area %) ([1]; pH 7.4, 25° C., 6 days): 92.43 Area %
Assay (Area %) ([1]; pH 7.4, 25° C., Initial): 99.82 Area %
Assay (Area %) ([1]; pH 7.4, 40° C., 1 day): 96.32 Area %
Assay (Area %) ([1]; pH 7.4, 40° C., 2 days): 89.70 Area %
Assay (Area %) ([1]; pH 7.4, 40° C., 6 days): 69.11 Area %
Assay (Area %) ([1]; pH 7.4, 40° C., Initial): 99.82 Area %
Assay (Area %), degradation symbol [1, 7]: — ((—) stands for > 20% degradation)

SMILES: CN1C(=N)N[C@](C)(c2cc(-c3ccc(F)c(C#N)c3)cs2)CS1(=O)=O [Example 46]
Ki [3]: 8.23 nM
Ki [4]: 46 nM

SMILES: CC#Cc1cncc(-c2csc([C@]3(C)CS(=O)(=O)N(C)C(=N)N3)c2)c1 [Example 47]
Ki [3]: ~1 nM
Ki [4]: ~6.5 nM
Area %, Day 1 (Unknown peak, RRT 1.49) ([5]; Sample at pH 7.4, 25° C.): 1.44 Area %
Area %, Day 1 (parent peak, RRT 1.00) ([5]; Sample at pH 7.4, 25° C.): 98.56 Area %
Area %, Day 4 (Unknown peak, RRT 1.49) ([5]; Sample at pH 7.4, 25° C.): 1.47 Area %
Area %, Day 4 (parent peak, RRT 1.00) ([5]; Sample at pH 7.4, 25° C.): 98.53 Area %
Area %, Day 6 (Unknown peak, RRT 1.49) ([5]; Sample at pH 7.4, 25° C.): 1.47 Area %
Area %, Day 6 (parent peak, RRT 1.00) ([5]; Sample at pH 7.4, 25° C.): 98.53 Area %
Area %, Initial (Unknown peak, RRT 1.49) ([5]; Sample at pH 7.4, 25° C.): 1.45 Area %
Area %, Initial (parent peak, RRT 1.00) ([5]; Sample at pH 7.4, 25° C.): 98.55 Area %
Area %, Day 1 (Unknown peak, RRT 1.49) [5, 9]: 1.45 Area %
Area %, Day 1 (parent peak, RRT 1.00) [5, 9]: 98.55 Area %
Area %, Day 4 (Unknown peak, RRT 1.49) [5, 9]: 1.48 Area %
Area %, Day 4 (parent peak, RRT 1.00) [5, 9]: 98.52 Area %
Area %, Day 6 (Unknown peak, RRT 1.49) [5, 9]: 1.48 Area %
Area %, Day 6 (parent peak, RRT 1.00) [5, 9]: 98.52 Area %
Area %, Initial (Unknown peak, RRT 1.49) [5, 9]: 1.47 Area %
Area %, Initial (parent peak, RRT 1.00) [5, 9]: 98.53 Area %
hydrolysis product ([5]; pH 7.4 buffer at 25° C., after 6 days): 0%

SMILES: CN1C(=N)N[C@](C)(c2c(F)ccc(NC(=O)c3ccc(F)cn3)c2F)CS1(=O)=O [Example 173]
change in vivo at 10 mg/kg [2, 8]: -27%
Papp A→B at 2 h [6]: 12.6 ×10⁻⁶ cm/s

SMILES: CN1C(=N)N[C@](C)(c2cc(NC(=O)c3ccc(F)cn3)ccc2F)CC1=O [Iminopyrimidinone 25]
change in vivo at 10 mg/kg [2, 8]: -11%
efflux ratio at 2 h (P-gp): 10.6
Papp A→B at 2 h [6]: 2.2 ×10⁻⁶ cm/s

Continued, in another order:

efflux ratio at 2 h (P-gp): 11.3
Papp A→B at 2 h [6]: 1.7 ×10⁻⁶ cm/s
SMILES: CN1C(=N)N[C@](C)(c2cc(NC(=O)c3ccc(C(F)(F)F)cn3)ccc2F)CC1=O [Iminopyrimidinone 26]
change in vivo at 10 mg/kg [2, 8]: 0%

Caco-2 AP→BL (Caco-2 cell line): 0 nm/s
SMILES: CN1C(=N)N[C@](C)(c2cc(NC(=O)c3ccc(Cl)cn3)ccc2F)CC1=O [Iminopyrimidinone 34, reference compound]
change in vivo at 10 mg/kg ([2]; po, 3 h): -19%

Caco-2 AP→BL (Caco-2 cell line): 0 nm/s
SMILES: Cc1ccc(C(=O)Nc2ccc(F)c([C@]3(C)CC(=O)N(C)C(=N)N3)c2)nc1 [Iminopyrimidinone 35]

efflux ratio at 2 h (P-gp): 12.9
Papp A→B at 2 h [6]: 1.1 ×10⁻⁶ cm/s
SMILES: Cc1cnc(C(=O)Nc2ccc(F)c([C@]3(C)CC(=O)N(C)C(=N)N3)c2)cn1 [Iminopyrimidinone 36]

efflux ratio at 2 h (P-gp): 3.2
Papp A→B at 2 h [6]: 6.5 ×10⁻⁶ cm/s
SMILES: COc1cnc(C(=O)Nc2cc(F)c(F)c([C@]3(C)CC(=O)N(C)C(=N)N3)c2)cn1 [Iminopyrimidinone 40di]
change in vivo at 10 mg/kg [2, 8]: 5%

efflux ratio at 2 h (P-gp): 2.6
Papp A→B at 2 h [6]: 17.4 ×10⁻⁶ cm/s
SMILES: CN1C(=N)N[C@](C)(c2cc(-c3cccc(C#N)c3)cs2)CC1=O [Iminopyrimidinone 45]
change in vivo at 10 mg/kg [2, 8]: -5%

efflux ratio at 2 h (P-gp): 2.6
Papp A→B at 2 h [6]: 13.6 ×10⁻⁶ cm/s
SMILES: CN1C(=N)N[C@](C)(c2cc(-c3ccc(F)c(C#N)c3)cs2)CC1=O [Iminopyrimidinone 46]

Papp A→B at 2 h [6]: 15.3 ×10⁻⁶ cm/s
SMILES: CC#Cc1cncc(-c2cc(Cl)c([C@]3(C)CC(=O)N(C)C(=N)N3)s2)c1 [Iminopyrimidinone 52, reference compound]

efflux ratio at 2 h (P-gp): 6.1
Papp A→B at 2 h [6]: 2.5 ×10⁻⁶ cm/s
SMILES: CN1C(=N)N[C@](C)(c2c(F)ccc(NC(=O)c3ccc(F)cn3)c2F)CC1=O [Iminopyrimidinone 173]
change in vivo at 10 mg/kg [2, 8]: -3%
